Columns and labels:
[1] = molecular target: uACC (Ustilago maydis ACC) (Ustilago maydis, UniProt A0A0D1DYD5); experiment: [14C]bicarbonate incorporation assay, overall ACC activity; assay type: biochemical
[2] = molecular target: T1, hACC2 (Homo sapiens, UniProt O00763); experiment: as above; assay type: biochemical; details: recombinant hACC2, overall ACC activity
T1 construct: delete amino acids 1-148 and add Met-Gly in front of Lys149 in the final product; His tag (C); made in house; host or cells: baculovirus, Sf9 insect cells
Method: (§1) In vitro IC50 values of human ACC were determined using recombinant enzyme produced by standard procedures. For example, full-length cDNAs for both the human isoforms (hACC1 and hACC2) were each cloned and expressed as a recombinant protein using a baculovirus system. Double stranded cDNA from human fetal liver (Quick-Clone cDNA, cat. #7171-1) was purchased from BD/Clontech (Mt. View, Calif.). PCR primers were designed for full-length hACC1 and hACC2 using GenBank submissions AY237919 and AJ575592, respectively. The Advantage GC 2 PCR kit (BD/Clontech) was used for amplification. The PCR products (about 7 Kb) were TOPO-cloned into the pCR4Blunt vector (Invitrogen, Carlsbad, Calif.), and 6 clones of each gene were isolated. […] Full length versions of the two cDNAs corresponding to their respective Genbank sequences were assembled in pBluescript SK+ (Stratagene, La Jolla, Calif.) by combining error-free fragments from the PCR clones. The resulting hACC1 clone, designated pCS35, has six silent nucleotide differences compared to Genbank accession AY237919. The final hACC2 clone, designated pCS36, has ten silent nucleotide differences compared to Genbank accession AJ575592. Primers were designed to PCR amplify the cDNAs along with the in-frame 3′-his tag sequences from the pET vector and TOPO-cloned the resulting products into the Gateway® entry vector pENTR/D-TOPO. The ACC2 primers were designed to delete amino acids 1-148 and add Met-Gly in front of Lys149 in the final product. The resulting entry clones were transferred to BaculoDirect™ linear DNA (Invitrogen corp.) using the Gateway® LR recombination reaction. The recombinant baculovirus DNA was transfected into insect cells and viral amplification was performed according to the manufacturer's protocols. For protein expression sf9 cells were infected with a P3 viral stock in the presence of 50 uM biotin. The cells were harvested after 48-72 hr, lysed by sonication, and the resulting extract was clarified by centrifugation. ACC in the crude extract was concentrated by ammonium sulfate precipitation (40% w/v) and purified by Ni^2+-NTA chromatography (Novagen) followed by anion exchange chromatography on a UNO-Q column (BioRad).
(§2) Overall ACC activity in the hACC preparations is measured by following incorporation of [^14C]bicarbonate into […] essentially as described (Thumpy and Wakil, J Biol Chem 260, 6318-6323 (1985). Briefly, the reaction mixture (50 μL) contains: 50 mM Hepes (pH7.4), 20 mM K-Citrate, 20 mM Mg-Acetate 1.5 mM MgSO4, 2 mM DTT, 2 mM acetyl-CoA, 12 mM NaHCO3, 0.2 mM NaH^14CO3 (˜50 mCi/mmol), 0.01% (v/v) Triton X-100, 0.75 mg/mL BSA, 1% (v/v) DMSO (with or without inhibitor), and 0.3 μg (hACC1) or 0.15 μg (hACC2) enzyme. Reactions are initiated by the addition of ATP to a final concentration 2 mM. After 10 minutes at 37° C., the reaction is stopped by the addition of 2N HCl (50 μL). The samples are evaporated in a hood overnight, resuspended in H2O (200 μL), and incorporated label is quantified by scintillation counting in scintillation cocktail (3 mL). Inhibition data are fit to dose-response curves and IC50 values are reported (i.e. the concentration of inhibitor that gives 50% inhibition).

[3] = molecular target: T2, hACC1 (Homo sapiens, UniProt Q13085); experiment: as above; assay type: biochemical; details: recombinant hACC1, overall ACC activity
T2 construct: PCR primers were designed for full-length hACC1 and hACC2 using GenBank submissions AY237919 and AJ575592, respectively; His tag (C); made in house; host or cells: baculovirus, Sf9 insect cells
Method: as §1, §2

[4] = test system: A2780 human ovary cancer cells; experiment: MTT Cell Proliferation Assay; assay type: cell-based; details: 72 hours, read-out: Percent of Control A2780
Method: (§3) The anti-proliferative activity of test compounds against human tumor cell lines is evaluated in vitro using the ATCC's MTT Cell Proliferation Assay (Catalog No. 30-100K). Cell lines are grown using media, serum, and culture conditions recommended by the ATCC. Stock cultures are allowed to grow to 70-80% confluence. Cells are seeded into 96-well culture plates at a predetermined density on day 0 in complete medium (0.1 mL). Plates are placed in a humidified incubator at 37° C. with 5% CO2 and 95% HEPA filtered room air for 24 hours. At this point compound (0.1 mL of 2× stock (in media)) is added to the indicated wells and the plates are returned to the incubator for 72 hours. Cell proliferation is measured by addition of MTT reagent to each well and incubated for an additional 4 hours, followed by addition of cell lysis/MTT solublization reagent and incubating overnight. […] Results are expressed as percent of control cells versus compound concentration. Compounds of the present invention, and salts thereof, were evaluated for anti-proliferative activity as described above.

[5] = test system: HCT-116 human colon cancer cells; experiment: MTT Cell Proliferation Assay; assay type: cell-based; details: 72 hours, read-out: Percent of Control HCT-116
Method: as §3

[6] = test system: PC-3 human prostate cancer cells; experiment: MTT Cell Proliferation Assay; assay type: cell-based; details: 72 hours, read-out: Percent of Control PC-3
Method: as §3

[7] = test system: MDA-MB-231 human breast cancer cells; experiment: MTT Cell Proliferation Assay; assay type: cell-based; details: 72 hours, read-out: Percent of Control MDA-MB-231
Method: as §3

Chain of uACC (Ustilago maydis ACC) (A0A0D1DYD5 entry or part of it): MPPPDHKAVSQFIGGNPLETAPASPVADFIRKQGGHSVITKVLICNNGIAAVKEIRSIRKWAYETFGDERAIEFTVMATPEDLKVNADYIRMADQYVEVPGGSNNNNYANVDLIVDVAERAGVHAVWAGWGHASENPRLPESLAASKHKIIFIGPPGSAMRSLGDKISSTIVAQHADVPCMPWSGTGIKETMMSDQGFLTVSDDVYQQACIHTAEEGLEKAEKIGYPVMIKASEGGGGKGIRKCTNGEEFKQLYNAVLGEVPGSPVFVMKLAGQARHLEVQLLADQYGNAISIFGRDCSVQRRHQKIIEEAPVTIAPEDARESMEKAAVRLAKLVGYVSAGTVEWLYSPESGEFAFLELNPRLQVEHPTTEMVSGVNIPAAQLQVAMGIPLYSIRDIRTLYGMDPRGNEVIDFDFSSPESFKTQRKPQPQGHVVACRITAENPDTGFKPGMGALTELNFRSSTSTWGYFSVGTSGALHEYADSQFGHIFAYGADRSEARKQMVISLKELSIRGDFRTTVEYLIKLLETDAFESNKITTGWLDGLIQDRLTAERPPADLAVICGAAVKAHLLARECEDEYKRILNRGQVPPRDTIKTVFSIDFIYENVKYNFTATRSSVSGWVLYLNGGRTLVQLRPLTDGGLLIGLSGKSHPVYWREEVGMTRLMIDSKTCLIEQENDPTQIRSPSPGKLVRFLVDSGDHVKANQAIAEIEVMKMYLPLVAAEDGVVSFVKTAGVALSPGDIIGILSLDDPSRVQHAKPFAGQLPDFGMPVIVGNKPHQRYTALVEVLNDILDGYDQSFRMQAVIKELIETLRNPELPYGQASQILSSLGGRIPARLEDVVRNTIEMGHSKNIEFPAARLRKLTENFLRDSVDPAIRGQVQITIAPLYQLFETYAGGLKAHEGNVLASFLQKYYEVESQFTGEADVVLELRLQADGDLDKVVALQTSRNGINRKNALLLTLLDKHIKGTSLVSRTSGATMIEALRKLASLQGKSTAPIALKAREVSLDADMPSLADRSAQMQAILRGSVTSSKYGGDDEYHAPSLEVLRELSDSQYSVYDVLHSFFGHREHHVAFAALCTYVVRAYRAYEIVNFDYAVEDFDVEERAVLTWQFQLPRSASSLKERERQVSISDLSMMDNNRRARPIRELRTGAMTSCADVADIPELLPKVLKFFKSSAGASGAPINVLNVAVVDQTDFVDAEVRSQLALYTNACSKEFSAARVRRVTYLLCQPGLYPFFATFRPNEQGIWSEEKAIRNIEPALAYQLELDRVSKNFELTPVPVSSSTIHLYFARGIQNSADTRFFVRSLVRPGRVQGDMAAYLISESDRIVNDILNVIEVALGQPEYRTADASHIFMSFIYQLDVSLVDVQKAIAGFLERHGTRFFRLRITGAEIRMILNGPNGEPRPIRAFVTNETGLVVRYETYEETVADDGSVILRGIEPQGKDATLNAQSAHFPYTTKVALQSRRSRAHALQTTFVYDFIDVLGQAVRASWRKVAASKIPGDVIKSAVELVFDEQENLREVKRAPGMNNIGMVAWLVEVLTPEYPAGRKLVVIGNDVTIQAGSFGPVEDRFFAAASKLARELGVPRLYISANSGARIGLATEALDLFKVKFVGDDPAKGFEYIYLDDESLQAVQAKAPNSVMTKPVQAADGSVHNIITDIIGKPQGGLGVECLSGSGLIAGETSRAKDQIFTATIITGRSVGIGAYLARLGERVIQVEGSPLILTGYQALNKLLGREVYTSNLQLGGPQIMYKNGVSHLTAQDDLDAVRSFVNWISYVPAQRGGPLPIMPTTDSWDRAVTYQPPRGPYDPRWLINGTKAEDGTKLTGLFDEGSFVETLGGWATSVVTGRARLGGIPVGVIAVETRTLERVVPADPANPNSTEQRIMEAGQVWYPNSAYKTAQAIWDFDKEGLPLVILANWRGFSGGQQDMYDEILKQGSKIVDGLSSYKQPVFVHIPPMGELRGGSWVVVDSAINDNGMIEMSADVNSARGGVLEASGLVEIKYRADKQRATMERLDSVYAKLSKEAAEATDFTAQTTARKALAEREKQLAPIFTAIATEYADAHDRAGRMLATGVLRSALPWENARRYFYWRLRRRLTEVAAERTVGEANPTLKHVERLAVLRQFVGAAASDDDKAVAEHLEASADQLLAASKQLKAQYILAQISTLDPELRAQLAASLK
T1 sequence (O00763 149-2458 limits assumed): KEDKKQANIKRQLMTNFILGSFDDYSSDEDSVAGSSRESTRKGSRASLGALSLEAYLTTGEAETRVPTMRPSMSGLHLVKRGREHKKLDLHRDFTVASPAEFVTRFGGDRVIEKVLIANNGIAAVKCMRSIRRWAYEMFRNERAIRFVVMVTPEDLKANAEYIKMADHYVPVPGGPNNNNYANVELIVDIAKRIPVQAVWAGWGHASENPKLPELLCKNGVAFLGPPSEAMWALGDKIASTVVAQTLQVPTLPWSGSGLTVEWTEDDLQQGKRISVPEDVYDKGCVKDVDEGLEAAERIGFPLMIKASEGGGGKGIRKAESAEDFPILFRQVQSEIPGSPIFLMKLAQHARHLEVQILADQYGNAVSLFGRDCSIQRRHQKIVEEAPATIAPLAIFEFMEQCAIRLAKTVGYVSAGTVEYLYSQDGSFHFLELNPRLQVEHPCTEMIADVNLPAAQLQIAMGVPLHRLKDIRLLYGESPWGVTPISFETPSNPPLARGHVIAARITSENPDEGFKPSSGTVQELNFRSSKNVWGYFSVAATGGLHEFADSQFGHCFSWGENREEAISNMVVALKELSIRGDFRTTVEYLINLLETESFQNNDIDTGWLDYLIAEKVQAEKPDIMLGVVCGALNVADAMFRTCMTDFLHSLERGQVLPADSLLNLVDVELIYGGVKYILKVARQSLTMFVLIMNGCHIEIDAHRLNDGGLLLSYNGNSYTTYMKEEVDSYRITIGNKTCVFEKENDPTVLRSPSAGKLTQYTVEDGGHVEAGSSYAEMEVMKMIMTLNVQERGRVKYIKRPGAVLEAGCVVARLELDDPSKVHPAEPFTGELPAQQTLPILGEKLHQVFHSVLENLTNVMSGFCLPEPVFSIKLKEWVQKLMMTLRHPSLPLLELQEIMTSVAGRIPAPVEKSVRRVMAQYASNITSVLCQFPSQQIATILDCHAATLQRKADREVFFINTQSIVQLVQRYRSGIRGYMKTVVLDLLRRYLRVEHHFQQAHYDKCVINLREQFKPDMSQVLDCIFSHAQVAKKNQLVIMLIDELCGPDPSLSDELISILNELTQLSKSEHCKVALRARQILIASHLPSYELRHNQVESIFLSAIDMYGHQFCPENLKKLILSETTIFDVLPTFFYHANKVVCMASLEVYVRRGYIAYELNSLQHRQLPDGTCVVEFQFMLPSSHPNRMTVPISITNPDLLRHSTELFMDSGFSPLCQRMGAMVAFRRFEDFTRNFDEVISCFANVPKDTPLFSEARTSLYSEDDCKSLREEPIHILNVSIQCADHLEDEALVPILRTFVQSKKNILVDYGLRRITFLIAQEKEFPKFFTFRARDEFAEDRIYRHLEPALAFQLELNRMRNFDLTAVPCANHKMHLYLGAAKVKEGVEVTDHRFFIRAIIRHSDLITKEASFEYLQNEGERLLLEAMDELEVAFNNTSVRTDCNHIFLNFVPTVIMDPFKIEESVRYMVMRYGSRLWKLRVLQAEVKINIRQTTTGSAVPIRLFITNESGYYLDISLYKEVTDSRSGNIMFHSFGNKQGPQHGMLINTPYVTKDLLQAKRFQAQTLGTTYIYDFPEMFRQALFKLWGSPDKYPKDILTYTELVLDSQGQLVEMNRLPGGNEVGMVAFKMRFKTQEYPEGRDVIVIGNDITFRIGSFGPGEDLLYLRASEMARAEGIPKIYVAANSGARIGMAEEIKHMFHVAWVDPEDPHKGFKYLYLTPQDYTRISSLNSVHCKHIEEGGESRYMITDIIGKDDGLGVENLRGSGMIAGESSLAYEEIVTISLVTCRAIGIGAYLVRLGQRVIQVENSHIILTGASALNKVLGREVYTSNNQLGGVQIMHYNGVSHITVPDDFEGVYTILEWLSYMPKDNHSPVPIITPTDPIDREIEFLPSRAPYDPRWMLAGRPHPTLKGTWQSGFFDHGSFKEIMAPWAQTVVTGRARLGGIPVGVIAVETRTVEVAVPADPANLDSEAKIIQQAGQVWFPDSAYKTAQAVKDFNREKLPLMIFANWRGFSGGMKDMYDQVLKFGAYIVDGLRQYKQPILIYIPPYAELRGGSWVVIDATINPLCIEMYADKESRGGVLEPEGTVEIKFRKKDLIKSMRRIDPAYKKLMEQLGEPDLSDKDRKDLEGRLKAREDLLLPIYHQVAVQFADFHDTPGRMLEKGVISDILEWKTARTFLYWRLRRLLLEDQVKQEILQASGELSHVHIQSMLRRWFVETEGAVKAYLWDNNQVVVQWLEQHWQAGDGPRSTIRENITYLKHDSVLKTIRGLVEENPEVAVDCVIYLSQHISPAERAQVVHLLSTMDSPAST

Row | SMILES | IC50 [1] | IC50 [2] | IC50 [3] | activity at 3.3 µM [4] | activity at 10 µM [4] | activity at 3.3 µM [5] | activity at 10 µM [5] | activity at 3.3 µM [6] | activity at 10 µM [6] | activity at 3.3 µM [7] | activity at 10 µM [7]
1 | COc1ccc(-c2cc(C(=O)N3CCC4(CC3)NC(=O)c3ccccc3O4)n[nH]2)cc1 [Compound 87, 1′-[5-(4-Methoxyphenyl)-1(H)-pyrazol-3-ylcarbonyl]spiro[2H-1,3-benzoxazin-2,4′-piperidin]-4-(3H)-one] | 220000 nM | 12000 nM | 9700 nM | – | – | – | – | – | – | – | –
2 | O=C1NC2(CCN(C(=O)c3sc4ccccc4c3Cl)CC2)Oc2ccc(Br)cc21 [Compound 1, 6-Bromo-1′-[(3-chlorobenzothien-2-yl)carbonyl]spiro[2H-1,3-benzoxazine-2,4′-piperidine]-4(3H)-one] | 160000 nM | 5400 nM | 6000 nM | – | – | – | – | – | – | – | –
3 | COc1cc(C(=O)N2CCC3(CC2)NC(=O)c2cc(C)ccc2O3)cc2c(OC)cccc12 [Compound 145, 1′-[(4,8-Dimethoxynaphth-2-yl)carbonyl]-6-methylspiro[2H-1,3-benzoxazin-2,4′-piperidin]-4-(3H)-one] | 5200 nM | 7 nM | 11 nM | – | – | – | – | – | – | – | –
4 | COc1cc(C(=O)N2CCC3(CC2)NC(=O)c2cc(Br)ccc2O3)cc2c(OC)cccc12 [Compound 30, 6-Bromo-1′-[(4,8-dimethoxynaphth-2-yl)carbonyl]spiro[2H-1,3-benzoxazin-2,4′-piperidin]-4-(3H)-one] | 20000 nM | 17 nM | 16 nM | – | – | – | – | – | – | – | –
5 | CCOc1ccc2c(c1)C(=O)NC1(CCN(C(=O)c3cc(OC)c4cccc(OC)c4n3)CC1)O2 [Compound 139] | 20000 nM | 33 nM | 50 nM | 85.9% | 60.1% | 68.4% | 49.9% | 57% | 54.7% | 70.3% | 46.4%
6 | O=C1NC2(CCN(C(=O)c3cc4c(Cl)cccc4s3)CC2)Oc2ccc(Br)cc21 [Compound 5, 6-Bromo-1′-[(4-chlorobenzthien-2-yl)carbonyl]spiro[2H-1,3-benzoxazin-2,4′-piperidin]-4-(3H)-one] | > 135000 nM | 2100 nM | 4500 nM | – | – | – | – | – | – | – | –
7 | Cc1nn(C)c2sc(C(=O)N3CCC4(CC3)NC(=O)c3cc(Br)ccc3O4)cc12 [Compound 4, 6-Bromo-1′-{(1,3-dimethyl-1H-thieno[2,3-c]pyrazol-5-yl)carbonyl} spiro[2H-1,3-benzoxazin-2,4′-piperidin]-4-(3H)-one] | 50000 nM | 2900 nM | 2800 nM | – | – | – | – | – | – | – | –
8 | COc1cc(C(=O)N2CCC3(CC2)NC(=O)c2cc(NC(C)=O)ccc2O3)nc2c(C3CC3)cccc12 [Compound 33] | 19300 nM | 51 nM | 73 nM | – | – | – | – | – | – | – | –
9 | COc1ccc(OC)c2[nH]c(C(=O)N3CCC4(CC3)NC(=O)c3cc(OC(C)C)ccc3O4)cc12 [Compound 184] | – | 400 nM | 480 nM | 90% | 44.7% | 65.5% | 40.4% | 81.3% | 64.6% | 75.8% | 46.1%
10 | COc1cc2c(OC)cccc2cc1C(=O)N1CCC2(CC1)NC(=O)c1cc(Br)ccc1O2 [Compound 3, 6-Bromo-1′-[(3,5-dimethoxynaphth-2-yl)carbonyl]spiro[2H-1,3-benzoxazine-2,4′-piperidine]-4(3H)-one] | 90000 nM | 290 nM | 860 nM | – | – | – | – | – | – | – | –
11 | COc1ccc2cc3c(cc2c1)C(=O)NC1(CCN(C(=O)c2cc(OC)c4cccc(OC)c4n2)CC1)O3 [Compound 164] | – | 4 nM | 4 nM | 73.1% | 46% | 54% | 43.5% | 68% | – | 47.6% | 13.9%
12 | COc1cccc2c(C)c(C(=O)N3CCC4(CC3)NC(=O)c3cc(OC(C)C)ccc3O4)[nH]c12 [Compound 180] | – | 42 nM | 36 nM | 79.4% | 21.2% | 52.6% | 29.8% | 79.5% | 56.8% | 68.7% | 9.3%
13 | CCOc1ccc2c(c1)C(=O)NC1(CCN(C(=O)c3cc(OC)c4cccc(OC)c4c3)CC1)O2 [Compound 146, 1′-[(4,8-Dimethoxynaphth-2-yl)carbonyl]-6-ethoxyspiro[2H-1,3-benzoxazin-2,4′-piperidin]-4-(3H)-one] | 3000 nM | 4 nM | 5 nM | – | – | – | – | – | – | – | –

Source: patent publication US8110570B2, “Modulators of acetyl-coenzyme A carboxylase and methods of use thereof” (Cropsolution, Inc., priority 2008, dated 2012)
